According to patent publication US20080051413A1, “Nitrophenylpiperazine derivative of xanthine which relaxes tracheal airway and increases respiratory performance” (KAOHSIUNG MEDICAL UNIVERSITY, priority 2006, published 2008):

Key:
[1] = test system: carbachol (1 _M)-precontracted guinea pig trachea; experiment: Isolated tracheal preparation, measurement of tension
Protocol: Isolated Tracheal preparation and Measurement of Tension: Guinea pigs (350-450 g) were anesthetized with pentobarbital (70 mg/kg) i.p. and killed by a sharp blow on the neck, followed by cervical dislocation. The trachea was excised, cleaned of adhering fat and connective tissue, cut transversely into four to five rings, and then opened by cutting longitudinally through the cartilage rings diametrically opposite the tracheal smooth muscle (Hwang T L, Wu C C, and Teng C M (1999) YC-1 potentiates nitric oxide-induced relaxation in guinea-pig trachea. Br J Pharmacol 128:577-584). Then trachea rings were suspended in a 10-ml organ bath containing Krebs' solution (118 mM NaCl, 25 mM NaHCO3, 4.7 mM KCl, 1.2 mM KH2PO4, 1.2 mM MgSO4, 11 mM glucose, and 2.5 mM CaCl2, pH 7.3-7.4) maintained at 37_and aerated with 95% O2 and 5% CO2. Each tracheal tissue sample was subjected to 2 g of initial basal tension. All experiments were carried out in the presence of indomethacin (3 _M) and propranolol (1 _M) to prevent the formation of prostanoids and to inhibit _-adrenergic responses, respectively. Isometric tension was recorded with a force displacement transducer (model FT03; Grass Instruments, Quincy, M A). Before the start of measurements, all preparations were allowed to equilibrate with frequent washing for 1 h. They were first contracted with carbachol (1 _M) to determine the contractility of preparations. This was also done at the end of each experiment. The preparations were then washed and allowed to equilibrate with Krebs' solution for 50 min before being contracted a second time with carbachol (1 _M). When stable constriction to carbachol was reached, concentration responses of KMUP-3 (10, 30, and 100 _M) were obtained. Data were expressed as percentages of the maximum contractile response to carbachol (1 _M).
In experiments to examine the role of epithelium in tracheal relaxation, the epithelial cells were removed mechanically by rubbing the internal surface of trachea with a fine silver wire, and the removal of the epithelial layer was confirmed by histological examination as previously described (Wu et al., 2004).
To examine the possible mechanism of tracheal relaxant effects of KMUP-3, the tracheal strips were pretreated with a K^+ channel blocker, tetraethylammonium (TEA; 10 mM); a KATP channel blocker, glibenclamide (1-M); voltage-dependent K^+ channel blocker, 4-aminopyridine (4-AP, 100 _M); Ca^2+-dependent K^+ channel blockers, apamin (1 _M) and charybdotoxin (ChTX; 0.1 _M); a sGC inhibitor, 1H-[1,2,4]oxadiazolo[4,3-a]quinoxalin-1-one (ODQ; 1 _M); an NOS inhibitor, N—nitro-L-arginine methyl ester (L-NAME; 100 _M); and an adenylate cyclase (AC) inhibitor, SQ 22536 (100 _M) for 30 min prior to the addition of KMUP-3 (10, 30, and 100 _M). In the other experiments, TSMs were precontracted with 60 mM KCl to examine the relaxation achieved by KMUP-3. The KCl solution was prepared by substituting NaCl with KCl (60 mM) in an equimolar amount.

guinea pig TSM strips = experiment: Determination of nitrite in TSM strips; details: 100 _M, 30 min, EP+ TSM, basal 0.8±0.1 _M/mg, n=3
Protocol: Determination of Nitrite: To measure concentrations of nitrite (NO2^−) in guinea pig TSM strips, TSM strips were pretreated with KMUP-3 (100 _M) in Krebs' solution for 30 min. Then guinea pig TSM strips (2 ml/g tissue of methanol) were ultrasonically homogenized in an ice bath and then centrifuged at 10,000 g for 10 min at 4_. Briefly, harvestable supernatants were reacted with an equal volume of Griess reagents (1% […]/0.1% N-L-naphthylethylenediamine dihydrochloride/5% H3PO4) for 10 min to form a colored azo dye. The absorbance at 540 nm was detected by a flow-through visible spectrophotometer, and an equal volume of methanol was used for blank control.

[2] = target: T1, PDE3 purified from human platelets (Homo sapiens, UniProt Q14432); experiment: Phosphodiesterase activity, PDE3; format: biochemical; details: 10 _M compound, n = 3
T1 construct: PDE3 and PDE5 purified from human platelets; from tissue; host or cells: human platelets
T1 sequence (Q14432 whole entry): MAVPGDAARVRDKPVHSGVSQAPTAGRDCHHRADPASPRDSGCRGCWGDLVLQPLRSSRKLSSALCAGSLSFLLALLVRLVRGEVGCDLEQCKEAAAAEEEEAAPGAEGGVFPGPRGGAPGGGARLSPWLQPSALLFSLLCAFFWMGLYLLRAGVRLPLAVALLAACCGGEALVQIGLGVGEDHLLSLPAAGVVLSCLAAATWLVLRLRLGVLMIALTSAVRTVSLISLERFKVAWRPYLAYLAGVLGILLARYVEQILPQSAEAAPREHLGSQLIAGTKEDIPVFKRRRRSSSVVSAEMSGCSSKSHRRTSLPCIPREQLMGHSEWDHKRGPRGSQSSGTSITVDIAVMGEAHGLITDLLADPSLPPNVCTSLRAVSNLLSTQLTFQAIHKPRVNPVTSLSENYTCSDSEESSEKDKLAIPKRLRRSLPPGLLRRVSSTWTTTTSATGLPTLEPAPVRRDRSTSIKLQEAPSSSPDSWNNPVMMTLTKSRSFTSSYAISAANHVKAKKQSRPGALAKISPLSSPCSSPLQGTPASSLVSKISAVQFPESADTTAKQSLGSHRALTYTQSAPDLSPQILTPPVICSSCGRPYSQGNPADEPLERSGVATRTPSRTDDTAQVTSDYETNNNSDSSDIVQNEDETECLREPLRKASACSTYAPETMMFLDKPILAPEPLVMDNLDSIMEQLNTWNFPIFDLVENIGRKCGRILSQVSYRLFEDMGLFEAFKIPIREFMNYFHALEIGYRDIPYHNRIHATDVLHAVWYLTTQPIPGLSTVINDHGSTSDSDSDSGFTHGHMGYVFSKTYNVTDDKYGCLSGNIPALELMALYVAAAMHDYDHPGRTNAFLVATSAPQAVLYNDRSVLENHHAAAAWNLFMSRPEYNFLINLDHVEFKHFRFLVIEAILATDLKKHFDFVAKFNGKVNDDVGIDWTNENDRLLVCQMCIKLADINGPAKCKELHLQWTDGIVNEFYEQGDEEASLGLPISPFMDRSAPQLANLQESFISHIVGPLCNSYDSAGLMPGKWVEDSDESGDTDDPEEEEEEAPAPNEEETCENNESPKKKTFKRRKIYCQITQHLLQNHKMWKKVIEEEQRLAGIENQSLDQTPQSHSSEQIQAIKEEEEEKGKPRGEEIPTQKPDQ
Protocol: PDE3 and PDE5 purified from human platelets and PDE4 purified from human U-937 pronocytic cells were used. Test compound (10 _M) or vehicle was incubated with 0.2 _g of enzyme and 1 _M cAMP containing 0.01 _M [^3H]cAMP in Tris buffer, pH 7.5, for 20 min at 25_. The reaction was terminated by boiling for 2 min, and the resulting cAMP was converted to adenosine by the addition of 10 mg/ml snake venom nucleotidase, which is followed by a further incubation at 37_for 10 min. Unhydrolyzed cAMP was bound to AG1-X2 resin, and the remaining [^3H]adenosine in the aqueous phase was quantitated by scintillation counting.

Compound: Cn1c(=O)c2c(ncn2CCN2CCN(c3ccc([N+](=O)[O-])cc3)CC2)n(C)c1=O [KMUP-3]
- relaxation response after epithelium denudation (FIG. 3(A)) ([1]; 10, 30, 100 _M, EP− versus EP+): significant decrease in the relaxation response
- relaxation, concentration response ([1]; 10, 30, 100 _M, carbachol- or high-K+-contracted EP+ TSM, also epithelium-denuded): concentration-dependent relaxation
- relaxation of TSM strips ([1]; 100 _M, carbachol (1 _M)-precontracted): up to 130%
- relaxation in epithelium-intact trachea (FIG. 3(B)) ([1]; 100 _M, carbachol (1 _M)-precontracted, EP+): cause relaxations
- relaxation in presence of ODQ (1 _M), L-NAME (100 _M) or SQ 22536 (100 _M) (FIG. 5) ([1]; 30 min pretreatment, EP+ TSM): attenuated
- relaxation against carbachol-induced contractions in presence of K+ channel blockers (FIGS. 4(A)-4(E)) ([1]; pretreatment with TEA, glibenclamide, 4-AP, apamin or ChTX, EP+): inhibited
- NO2— release in comparison with the basal level (guinea pig TSM strips): 160±15%
- PDE3 inhibition [2]: 55 ± 2.5 %
